Laboratory results from US12343335B2, “Pharmaceutical composition for treating multiple sclerosis on basis of AMPK inhibitory function and zinc homeostasis control function” (ZINCURE CORP., priority 2019, dated 2025).

Columns and labels:
[1] = test system: MOG35-55-induced experimental autoimmune encephalomyelitis (EAE); assay: Long-term EAE model, 45 days after initial immunization; format: in vivo, C57BL/6 female mice; settings: intraperitoneally once a day
Experimental: (§1) The present inventors induced experimental autoimmune encephalomyelitis (EAE), an animal model of multiple sclerosis, by subcutaneously injecting Myelin oligodendrocyte glycoprotein 35-55 (MOG35-55) peptide antigen into C57BL/6 female mice (FIG. 1A). For this, MOG35-55 (Ana spec, USA) and Complete freund's adjuvant (CFA) were first prepared, and MOG35-55 (2 mg/ml) was dissolved in Phosphate buffered saline (lx PBS, Sigma), and then the 25 ml of CFA was prepared by dispending 25 ml of incomplete freund's adjuvant (IFA. Sigma) in a 50 ml conical tube. Then, in a fume hood, Mycobacterium tuberculosis H37Ra (100 mg; Difco, USA) was added to the IFA in order to prepare CFA and store it in the refrigerator after vortexing before use. Thereafter, MOG35-55 and CFA containing Mycobacterium tuberculosis H37Ra was mixed in the same amount and injected into both flanks of the mice. And then Pertussis toxin (4 μg/ml, List Biological Laboratories, USA) was injected intraperitoneally on the day of immunization and on the second day after immunization. After the immunization, the mice's body weight and clinical symptoms were measured every day, and the degree of EAE progression was evaluated based on specific clinical symptoms. More details on this are provided below.
EAE clinical symptom was evaluated based on previous studies (Jones et al., J. Neuroimmunol. 199(1-2): 83-93. 2008). […]

[2] = test system: spinal cord of MOG35-55 immunized EAE mice; assay: Immunofluorescence staining of spinal cord of EAE mice; format: in vivo, C57BL/6 female mice
Experimental: as §1
On the 21st day after EAE induction, the present inventors anesthetized mice with urethane and then perfused 4% paraformaldehyde into the heart to fix the spinal cord. After extracting the spinal cord, in order to examine demyelination of activity of microglia/macrophages the cell/macrophage activity of the tissue, immunofluorescence staining was performed with anti-myelin basic protein (MBP) and anti-F4/80 (Microglia/Macrophage) antibodies. In addition, anti-bodies against ionized calcium binding adapter molecule-1 (Iba-1) and anti-CD68 (Cluster of Differentiation 68) used as markers of microglia/macrophages to analyze the phenotype of strongly activated microglia/macrophages in the white matter part of the damaged spinal cord. Double immunofluorescence staining was performed using antibodies against CD8 and matrix metalloproteinase 9 (MMP-9) in order to investigate how AMP-activated protein kinase (AMPK) activity affects the survival of these cells. In addition, double immunofluorescence staining was performed using anti-CD8 and anti-phospho-AMPK antibodies to determine how AMP-activated protein kinase (AMPK) activity affects the survival of these cells in T cells infiltrating the spinal cord. In order to compare and analyze the activity of (MMP-9), immunofluorescence staining was performed using anti-MMP-9 antibodies. To examine the activity of astrocytes in the spinal cord, immunofluorescence staining was performed using anti-glial fibrillary acidic protein (GFAP) antibodies. To compare and analyze the expression of cytokines such as tumor necrosis factor (TNF) alpha and interferon (IFN) gamma, double immunofluorescence staining was performed using anti-TNF-alpha and anti-IFN gamma antibodies. In the same manner as the immunohistochemical method described above, the cryosections were reacted with 3% hydrogen peroxide at room temperature for 15 minutes to remove endogenous peroxidase, and then the primary antibodies, rat anti-MBP (1:200, Abcam, UK), anti-F4/80 (1:100, eBioscience, USA), goat anti-Iba1 (1:500, Abcam), anti-CD68 (1:100, Bio-Rad Laboratories, USA), anti-CD8 (1:50, BD Bioscience), anti-p-AMPK (1:100, Abcam), anti-MMP-9 (1:100, Abcam), anti-GFAP (1:500, Abcam), anti-IFN gamma (1:100, Invitrogen, USA), anti-TNF alpha (1:250, Abcam) antibodies were reacted for 15 hours at 4° C. Then, Alexa Fluor 488-, 594-, 647-conjugated secondary antibodies (1:250, Invitrogen, USA) suitable for the host of each primary antibodies were reacted at room temperature for 2 hours. […]

spinal cord of EAE mice = assay: Cresyl violet staining of spinal cord of EAE mice (mononuclear cell infiltration); format: in vivo, C57BL/6 female mice; settings: spinal cord white matter, day 21 after EAE induction, vs vehicle
Experimental: as §1, with “below. […]” for “below.”

[3] = test system: mouse cortical neuron culture; assay: Intrinsic toxicity in cortical neuron culture, LDH cytotoxicity; format: cell-based; settings: 40 μM
Experimental: The mouse cortical neurons used in the present invention were extracted from the brain of a mouse embryo, and cultured in Dulbecco's modified Eagle's medium (DMEM, Gibco, Grand Island, NY, US) supplemented with 5% fetal bovine serum (FBS) and 5% horse serum (HS) under the condition of 95% humidity, 5% CO2 and 37° C. For activation and differentiation of the cells, the cells were grown to a density of 2×10^4 cells in a 24-well tissue culture plate and cultured in MEM medium without FBS and HS before treatment with zinc and compounds.
Specifically, 40 μM of each of the drugs was treated in a mouse cortical neuron culture, and LDH cytotoxicity was observed after 24 or 48 hours.

[4] = spinal cord white matter, day 21 after EAE induction, compared to vehicle only
[5] = spinal cord, day 21 after EAE induction, vs vehicle

`O=C1N=C(Nc2cccc(O)c2)S/C1=C\c1c[nH]c2ccccc12` [1H10, (Z)-5-((1H-indol-3-yl)methylene)-2-((3-hydroxyphenyl)amino)thiazol-4(5H)-one] was tested, and the clinical symptoms [1] was “significantly reduced”, the incidence rate [1] was “significantly reduced” and the “phosphorylation of AMPK in CD8+ T cells infiltrated into the spinal cord” value ([2]; after EAE induction, vs vehicle) was “significantly decreased”. For the same compound, the “activity of MMP-9” value ([2]; spinal cord white matter, EAE, compared to vehicle only) was “inhibited”, the “activity of astrocytes (GFAP)” value ([2]; spinal cord white matter, day 21, vs vehicle) was “significantly inhibited” and the “expression of IFN gamma” value [2, 4] was “increased”. The “expression of TNF alpha” value [2, 4] was “decreased”, the “activated M1-type microglia/macrophages (Iba-1 and CD68 co-expression)” value ([2]; spinal cord, after EAE induction, vs vehicle) was “significantly reduced” and the “EAE-induced demyelination (MBP staining)” value [2, 5] was “significantly decreased”. For the same compound, the “activity of microglia/macrophages (F4/80)” value [2, 5] was “significantly decreased”, the mononuclear cell infiltration (spinal cord of EAE mice) was “significantly inhibited” and the “intrinsic toxicity (LDH cytotoxicity)” value ([3]; after 24 hours of drug treatment) was 7.81±2.77%. The “intrinsic toxicity (LDH cytotoxicity)” value ([3]; after 48 hours of drug treatment) was 60.72±8.28%.
